In patent publication US4703107A, “Water-soluble acylated derivatives of peptides or amino acids, their preparation and their use” (priority 1983, dated 1987):
Values after ≈ are worked out from the molar mass of the structure shown. Where two headings read alike, the source gives them in different places. Where a SMILES comes first, the peptide text is derived from it. The star is where a group is joined. Doxorubicin(3'-N) = COc1cccc2c1C(=O)c1c(O)c3c(c(O)c1C2=O)C[C@@](O)(C(=O)CO)C[C@@H]3O[C@H]1C[C@H](N*)[C@H](O)[C@H](C)O1; dGluconoyl = O=C([C@H](O)[C@@H](O)[C@H](O)[C@H](O)CO)*; NH(9-Et-carbazol-3-yl) = CCn1c2ccccc2c2cc(N*)ccc21; AMC = Cc1cc(=O)oc2cc(N*)ccc12

Tests used:
[1] = Solubility in distilled water / aqueous solution; format: physicochemical; conditions: for solubility in distilled water: at 20° C.
Experimental: The solubility of the PHA-L-Ala-L-Ala-L-Pro-L-Ala-AEC is greater than 80 mg/ml in distilled water or a buffer with a pH between 3 and 9.
The solubility of this compound in distilled water is 2.0 mM/l at 20° C.
The influence of the length of the N-acylating polyhydroxyalcanoyl group on the water solubility of fluorogenic substrates is shown in Table III in the case of a chymotrypsin specific substrate PHA-L-Ala-L-Ala-L-Phe-7-amido-4-methylcoumarin.

[2] = pH 8.1, aqueous buffer
[3] = Table IV; same values as Table I
[4] = tested on: leucemic cells L1210, Lewis lung carcinoma "3LL"; experiment: Penetration into and death of tumor cells; format: cell-based
[5] = Table III, water solubility, 20° C., read-out: SOLUBILITY (mM AT 20° C.)

Compound | solubility [1, 5] [mM] | solubility in distilled water [1] [mM/l] | other results
CC(=O)N[C@@H](C)C(=O)N[C@@H](C)C(=O)N[C@@H](Cc1ccccc1)C(=O)Nc1ccc2c(C)cc(=O)oc2c1 [AcAlaAlaPheAMC, reference compound] (Ac-Ala-Ala-Phe-{AMC}) | 0.2 |  | 
CCn1c2ccccc2c2cc(NC(=O)[C@H](CCCCN)NC(=O)[C@H](Cc3ccccc3)NC(=O)[C@@H](NC(=O)[C@H](O)[C@@H](O)[C@H](O)[C@H](O)CO)C(C)C)ccc21 [GlcA--Val--Phe--Lys--AEC] |  |  | solubility [2]: 165000 µM (≈ 126 mg/mL); solubility [3]: 165000 µM (≈ 126 mg/mL)
COc1cccc2c1C(=O)c1c(O)c3c(c(O)c1C2=O)C[C@@](O)(C(=O)CO)C[C@@H]3O[C@H]1C[C@H](NC(=O)[C@@H](N)CC(C)C)[C@H](O)[C@H](C)O1 [L-Leu-Adriamycine, L-Leu-Adriamycin] |  |  | penetration into tumor cells ([4]; leucemic cells L1210, Lewis lung carcinoma 3LL): penetrates the tumor cells; death of tumor cells ([4]; tumor cells): causes the death of these cells
CCn1c2ccccc2c2cc(NC(=O)[C@H](C)NC(=O)[C@@H]3CCCN3C(=O)[C@H](C)NC(=O)[C@H](C)NC(=O)[C@H](O)[C@@H](O)[C@H](O)[C@H](O)CO)ccc21 [PHA-L-Ala-L-Ala-L-Pro-L-Ala-AEC] (dGluconoyl-AAPA-{NH(9-Et-carbazol-3-yl)}) |  |  | solubility ([1]; aqueous with cosolvent or surfactant or cyclodextrin, in distilled water or a buffer with a pH between 3 and 9, read-out: solubility): > 80 mg/mL
COc1cccc2c1C(=O)c1c(O)c3c(c(O)c1C2=O)C[C@@](O)(C(=O)CO)C[C@@H]3O[C@H]1C[C@H](NC(=O)[C@H](CC(C)C)NC(=O)[C@H](CCCNC(=N)N)NC(=O)[C@@H]2CCCN2C(=O)[C@H](Cc2ccccc2)NC(=O)[C@H](O)[C@@H](O)[C@H](O)[C@H](O)CO)[C@H](O)[C@H](C)O1 [PHA-L-Phe-L-Pro-L-Arg-L-Leu-Adriamycin] (dGluconoyl-FPRL-{Doxorubicin(3'-N)}) |  |  | solubility in water ([1]; water): soluble in water
Cc1cc(=O)oc2cc(NC(=O)[C@H](Cc3ccccc3)NC(=O)[C@H](C)NC(=O)[C@H](C)NC(=O)[C@H](O)[C@@H](O)[C@H](O)[C@H](O)CO)ccc12 [gluconoyl-L-Ala-L-Ala-L-Phe-AMC] | 2.4 | 2.4 | 
Cc1cc(=O)oc2cc(NC(=O)[C@H](Cc3ccccc3)NC(=O)[C@H](C)NC(=O)[C@H](C)NC(=O)C(O)C(O)C(O)C(O)C(O)C(O)CO)ccc12 (stereo partly drawn) [glucooctanoyl-L-Ala-L-Ala-L-Phe-AMC] | 3.2 | 3.2 | 
Cc1cc(=O)oc2cc(NC(=O)[C@H](Cc3ccccc3)NC(=O)[C@H](C)NC(=O)[C@H](C)NC(=O)[C@H](O)[C@H](O)[C@H](O)CO)ccc12 [ribonoyl-L-Ala-L-Ala-L-Phe-AMC] | 2 | 2.0 | 
